In US9133142B2, “Salts or co-crystals of 3-(3-dimethylamino-1-ethyl-2-methyl-propyl)-phenol” (Gruenenthal GmbH, priority 2010, dated 2015):
Where a name gives a salt, the structure may show the parent alone.

Columns and labels:
[1] = Thermogravimetric analysis (TGA) of salts or cocrystals; assay type: physicochemical; conditions: for TGA no weight loss up to: nitrogen flow, heating rate of 10° C./min
Protocol: Thermogravimetric investigations were performed with a Mettler-Toledo TGA/SDTA851.
Unless otherwise specified, the samples were weighed in a aluminium crucible and measured in nitrogen flow. Generally TGA investigations were performed in a temperature range of 25 to about 200° C. or resp. 350° C. with a heating rate of 10° C./min.

[2] = cited from earlier work
[3] = target: recombinantly produced μ-opioid receptor (Homo sapiens, UniProt P35372); conditions: relative to morphine; cited from earlier work
Chain of recombinantly produced μ-opioid receptor (P35372 whole entry): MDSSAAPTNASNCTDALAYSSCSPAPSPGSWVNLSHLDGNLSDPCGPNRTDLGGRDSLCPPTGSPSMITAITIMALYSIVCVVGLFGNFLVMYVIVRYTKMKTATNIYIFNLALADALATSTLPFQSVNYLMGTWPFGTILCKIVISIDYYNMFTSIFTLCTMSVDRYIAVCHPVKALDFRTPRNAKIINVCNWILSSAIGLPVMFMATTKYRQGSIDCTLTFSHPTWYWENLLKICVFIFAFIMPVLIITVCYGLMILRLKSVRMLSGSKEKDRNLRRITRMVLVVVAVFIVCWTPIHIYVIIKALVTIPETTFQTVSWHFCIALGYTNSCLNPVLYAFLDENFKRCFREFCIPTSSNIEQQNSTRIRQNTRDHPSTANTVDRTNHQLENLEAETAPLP

[4] = clinical studies; cited from earlier work

## CC[C@@H](c1cccc(O)c1)[C@@H](C)CN(C)C.CC[C@@H](c1cccc(O)c1)[C@@H](C)CN(C)C.O=C(O[C@H](C(=O)O)[C@H](OC(=O)c1ccccc1)C(=O)O)c1ccccc1 [Example A-1, Hemi Salt or Hemi Cocrystal of (2S,3S)-Di-benzoyl Tartaric Acid and Tapentadol]
[1]
  TGA no weight loss up to: to 140 °C
[1]; listed as A-2
  TGA no weight loss up to: to 160 °C
[1]; listed as A-3
  TGA no weight loss up to: to 160 °C

## CC[C@@H](c1cccc(O)c1)[C@@H](C)CN(C)C.O=C(O)CCCCCCCCC(=O)O [Example B-1, Salt or Cocrystal of Sebacid Acid and Tapentadol]
[1]
  TGA no weight loss up to: to 140 °C
[1]; listed as B-2
  TGA no weight loss up to: to 105 °C
[1]; listed as B-3
  TGA no weight loss up to: to 145 °C

## CC[C@@H](c1cccc(O)c1)[C@@H](C)CN(C)C.O=C(O)c1ccc2ccccc2c1O [Example C-1, Salt or Cocrystal of 1-hydroxy-2-naphthoic Acid and Tapentadol]
[1]
  TGA no weight loss up to: to 125 °C
[1]; listed as C-2
  TGA no weight loss up to: to 130 °C

## CCC(c1cccc(O)c1)C(C)CN(C)C.O=C(O)CC(=O)O (centres unmarked) [Example E-1, Salt or Cocrystal of Malonic Acid and Tapentadol]
[1]
  TGA no weight loss up to: to 115 °C

## CC[C@@H](c1cccc(O)c1)[C@@H](C)CN(C)C [Example F-1, Salt or Cocrystal of Hydrobromic Acid and Tapentadol]
[1]
  TGA no weight loss up to: to 195 °C

## CC[C@@H](c1cccc(O)c1)[C@@H](C)CN(C)C.O=C(O)c1cccnc1 [Example G-1, Salt or Cocrystal of Nicotinic Acid and Tapentadol]
[1]; 28° C.-171° C.
  TGA weight loss: −6.4%

## CC[C@@H](c1cccc(O)c1)[C@@H](C)CN(C)C.O=C(O)c1cccnc1 [Example G-2, Salt or Cocrystal of Nicotinic Acid and Tapentadol]
[1]
  TGA no weight loss up to: to 135 °C
[1]; listed as G-3
  TGA no weight loss up to: to 150 °C

## CC[C@@H](c1cccc(O)c1)[C@@H](C)CN(C)C.CC[C@@H](c1cccc(O)c1)[C@@H](C)CN(C)C.O=C(O)/C=C/C(=O)O [Example I-1, Hemi Salt or Hemi Cocrystal of Fumaric Acid and Tapentadol]
[1]
  TGA no weight loss up to: to 131 °C
[1]; listed as I-2
  TGA no weight loss up to: to 130 °C
[1]; listed as I-3
  TGA no weight loss up to: to 130 °C

## CCC(c1cccc(O)c1)C(C)CN(C)C.O=C1NS(=O)(=O)c2ccccc21 (centres unmarked) [Example J-1, Salt or Cocrystal of Saccharin and Tapentadol]
[1]
  TGA no weight loss up to: to 105 °C

## CC[C@@H](c1cccc(O)c1)[C@@H](C)CN(C)C.O=C(O)c1cccnc1 [Example b2-1b, Salt or Cocrystal of Tapentadol and Nicotinic Acid]
[1]; range: 27 to 171° C.
  weight loss (TGA): −5.9%

## CC[C@@H](c1cccc(O)c1)[C@@H](C)CN(C)C.O=C(O)c1cccnc1 [Example b2-1c, Salt or Cocrystal of Tapentadol and Nicotinic Acid]
[1]; 29.76-135.97° C.
  TG weight change: −0.19%
[1]; range: 25 to 148° C.
  weight loss (TGA): < 0.3%

## CC[C@@H](c1cccc(O)c1)[C@@H](C)CN(C)C [hydrogen chloride salt of 3-(3-dimethylamino-1-ethyl-2-methyl-propyl)-phenol]
[2]
  solubility in water and aqueous media: high solubility

## CC[C@@H](c1cccc(O)c1)[C@@H](C)CN(C)C [tapentadol, (1R,2R)-3-(3-dimethylamino-1-ethyl-2-methyl-propyl)-phenol]
[3]
  affinity to the recombinantly produced μ-opioid receptor, times less than that of morphine: 18 times
[4]
  pain-alleviating action relative to morphine: two to three times less

## Salt or Cocrystal of Embonic Acid and Tapentadol [Example D-1]
[1]; 90° C.-157° C.
  TGA weight loss: −7.1%

## Salt or Cocrystal of Embonic Acid and Tapentadol [Example D-2]
[1]
  TGA no weight loss up to: to 170 °C
[1]; listed as D-3
  TGA no weight loss up to: to 160 °C

## Salt or Cocrystal of Nitric Acid and Tapentadol [Example H-1]
[1]
  TGA no weight loss up to: to 170 °C

## Salt or Cocrystal of Tapentadol and Embonic Acid [b1-4-3]
[1]; range 31 to 171° C.
  weight loss (TGA): < 0.1%

## Salt or Cocrystal of Tapentadol and Embonic Acid [b1-4-4]
[1]; range 53 to 167° C.
  weight loss (TGA): −5.7%
